{"source": "paper doi:10.1101/2020.04.16.044321v1", "about": "(biorxiv, 2020)", "target": "hemopexin (Homo sapiens, UniProt P02790)", "sequence (P02790 24-462)": "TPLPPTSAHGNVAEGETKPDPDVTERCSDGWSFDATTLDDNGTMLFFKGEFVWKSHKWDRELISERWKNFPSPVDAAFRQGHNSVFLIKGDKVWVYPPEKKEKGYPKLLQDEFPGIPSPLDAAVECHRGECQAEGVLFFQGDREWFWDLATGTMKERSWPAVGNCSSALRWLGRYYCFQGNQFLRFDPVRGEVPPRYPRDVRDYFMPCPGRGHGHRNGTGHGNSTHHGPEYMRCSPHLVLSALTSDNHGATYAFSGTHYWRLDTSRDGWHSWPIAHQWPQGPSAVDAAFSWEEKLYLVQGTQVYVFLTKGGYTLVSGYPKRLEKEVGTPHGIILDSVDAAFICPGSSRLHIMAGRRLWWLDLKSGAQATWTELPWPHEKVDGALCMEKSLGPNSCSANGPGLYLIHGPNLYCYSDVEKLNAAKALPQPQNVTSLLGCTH", "test": "biochemical"}
{"smiles": "C=CC1=C(C)C2=Cc3c(C=C)c(C)c4[n]3[Fe+][n]3c(c(C)c(CCC(=O)O)c3=CC3=NC(=C4)C(C)=C3CCC(=O)O)=CC1=N2", "note": "[heme]", "values": [{"measurement": "Kd", "value": "0.32 ± 0.04", "unit": "nM"}]}
